Test results from patent publication US20140271670A1, “COMPOSITIONS FOR TREATING SKIN DISORDERS” (priority 2013, published 2014).

System: Propionibacterium acnes (ATCC #6919)
Assay: In vitro reduction of P. acnes population (plate counts after timed exposure)
Type: cell-based
Method: In vitro experiments show the effectiveness of a composition comprising salicylic acid and anti-P. acnes immunoglobulin at reducing a specific microorganism population.
The microorganism of interest in the described experiments was Propionibacterium acnes. A stock suspension of P. acnes was prepared by inoculating a sample of P. acnes (ATCC #6919) in Reinforced Clostria broth at 36±1° C. for 5 days anaerobically. This stock suspension was divided into four equal batches. The first batch served as a no treatment control group. The second batch was treated with 2% salicylic acid. The third batch was treated with 3 ppm anti-P. acnes IgY at 95% purity. The fourth batch was treated with 2% salicylic acid and 3 ppm anti-P. acnes IgY at 95% purity. At time intervals 30 seconds, 1 minute, 5 minutes, 12 hours, and 24 hours, 1.0 ml from the inoculated control and test batches was taken and placed into 9.0 ml of neutralizing broth (1:10 dilution). Additional dilutions were made using neutralizing broth to achieve 1:100, 1:1000 and 1:10,000 dilutions. One milliliter from each dilution was plated into TSA+5% sheep blood. The plates were incubated at 36±1° C. for 5 days anaerobically. After the incubation period, all plates were counted to determine the number of microorganism at each time point.

`O=C(O)c1ccccc1O` [2% SA, salicylic acid (o-hydroxybenzoic acid)] was tested, and the number of microorganism (Exposure Time 30 sec.) was 7.20E+05, the number of microorganism (Exposure Time 12 hours) was <10 and the number of microorganism (Exposure Time 24 hours) was <10. The number of microorganism (Exposure Time Initial, P. acnes stock suspension) was 8.20E+05, the “time after which a 99% kill rate was reached” value (used alone) was 12 h and the “reduction of the concentration of P. acnes” value (within the first 30 seconds) was “about 12%”.
